# From patent US12275729B2 (Merck Sharp & Dohme LLC, priority 2017, dated 2025)
# Target: IDO1 (Homo sapiens, UniProt P14902)
# Test: IDO1 Cellular Assay in HeLa Cells Stimulated with IFNγ
# Assay type: cell-based
# Details: about 48 hours, read-out: Hela IC50
# Chain of IDO1 (P14902 whole entry): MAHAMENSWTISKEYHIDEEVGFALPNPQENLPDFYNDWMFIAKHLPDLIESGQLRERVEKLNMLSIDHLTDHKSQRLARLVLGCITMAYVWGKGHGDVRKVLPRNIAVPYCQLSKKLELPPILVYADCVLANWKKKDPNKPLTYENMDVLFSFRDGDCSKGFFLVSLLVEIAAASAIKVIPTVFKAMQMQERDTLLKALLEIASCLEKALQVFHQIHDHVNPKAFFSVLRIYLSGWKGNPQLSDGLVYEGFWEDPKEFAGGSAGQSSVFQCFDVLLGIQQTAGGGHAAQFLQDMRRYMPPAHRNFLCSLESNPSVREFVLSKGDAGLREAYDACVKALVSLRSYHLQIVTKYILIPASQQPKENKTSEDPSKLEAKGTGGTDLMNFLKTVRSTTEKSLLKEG
row,SMILES,IC50 [µM]
1,"Cc1nc(C(=O)N2CCCc3cc([C@@H](C)C(=O)Nc4ccc(F)cn4)ccc32)no1 [Example 64, (2R)-N-(5-fluoropyridin-2-yl)-2-[1-(5-methyl-1,2,4-oxadiazole-3-carbonyl)-1,2,3,4-tetrahydroquinolin-6-yl]propanamide]",0.0444
2,"Cn1cc(C(=O)N2CCCc3nc(C4(NC(=O)c5ccc(F)cc5)CC4)ccc32)cn1 [Example 173, 4-fluoro-N-{1-[5-(1-methyl-1H-pyrazole-4-carbonyl)-5,6,7,8-tetrahydro-1,5-naphthyridin-2-yl]cyclopropyl}benzamide]",0.0399
3,"CC(C(=O)Nc1ccc(F)cc1)c1ccc2c(c1)CCCN2C(=O)C1CCCCO1 (stereo not drawn) [Example 37, N-(4-fluorophenyl)-2-[1-(oxane-2-carbonyl)-1,2,3,4-tetrahydroquinolin-6-yl]propanamide]",0.0048
4,"CC(C(=O)Nc1ccc(F)cc1)c1ccc2c(n1)CCCN2C(=O)[C@@H]1CCCO1 (single isomer, unassigned) [Example 164]",0.0011
5,"CC(C(=O)Nc1ccc(F)cc1)c1ccc2c(n1)CCCN2C(=O)C1CCOCC1 (stereo not drawn) [Example 167, N-(4-fluorophenyl)-2-[5-(oxane-4-carbonyl)-5,6,7,8-tetrahydro-1,5-naphthyridin-2-yl]propanamide]",0.0051
6,"O=C(Nc1ccc(F)cn1)C1(c2ccc3c(c2)CCCN3S(=O)(=O)C2CC2)CCC1 [Example 124, 1-[1-(cyclopropylsulfonyl)-1,2,3,4-tetrahydroquinolin-6-yl]-N-(5-fluoropyridin-2-yl)cyclobutane-1-carboxamide]",0.0262
7,"CN(C)C(=O)N1CCCc2cc(C3(C(=O)Nc4ccc(F)cn4)CCC3)ccc21 [Example 102, 6-{1-[(5-fluoropyridin-2-yl)carbamoyl]cyclobutyl}-N,N-dimethyl-3,4-dihydroquinoline-1(2H)-carboxamide]",0.149
8,"CC(C)CC(=O)N1CCCc2cc(CNC(=O)c3ccc(F)cc3)ccc21 [Example 11, 4-fluoro-N-{[1-(3-methylbutanoyl)-1,2,3,4-tetrahydroquinolin-6-yl]methyl}benzamide]",0.0414
9,"O=C(c1cccc(Cl)c1)N1CCCc2nc(C3(C(=O)Nc4ccc(F)cc4)COC3)ccc21 [Example 267, 3-(5-(3-chlorobenzoyl)-5,6,7,8-tetrahydro-1,5-naphthyridin-2-yl)-N-(4-fluorophenyl)oxetane-3-carboxamide]",0.0022
10,"C[C@H](C(=O)Nc1ccc(F)cn1)c1ccc2c(c1)CCCN2C(=O)c1cccc(Cl)c1 (single isomer, unassigned) [Example 54]",0.018
11,"CC(NC(=O)c1ccc(F)cc1)c1ccc2c(n1)C(F)CCN2C(=O)C1CC1 (single isomer, unassigned) [Example 201, N-(1-(5-(cyclopropanecarbonyl)-8-fluoro-5,6,7,8-tetrahydro-1,5-naphthyridin-2-yl)ethyl)-4-fluorobenzamide]",0.186
12,"O=C(NC1(c2ccc3c(n2)CCCN3C(=O)c2cccc(Cl)c2)CC1)c1ccc(F)cc1 [Example 171, N-{1-[5-(3-chlorobenzene-1-carbonyl)-5,6,7,8-tetrahydro-1,5-naphthyridin-2-yl]cyclopropyl}-4-fluorobenzamide]",0.0023
13,"CC(C)CC(=O)N1CCCc2cc([C@H](C)NC(=O)c3ccc(Cl)cc3)ccc21 (single isomer, unassigned) [Example 27]",0.0422
14,"O=C(N1CCCc2cc(C3(C(=O)Nc4ccc(F)cn4)CCC3)ccc21)C1(F)CC1 [Example 99, 1-[1-(1-fluorocyclopropane-1-carbonyl)-1,2,3,4-tetrahydroquinolin-6-yl]-N-(5-fluoropyridin-2-yl)cyclobutane-1-carboxamide]",0.0168
15,Cc1nnc(C(=O)N2CCCc3cc(C(C)C(=O)Nc4ccc(F)cc4)ccc32)o1 (stereo not drawn) [Example 44],0.0168
16,"COC(C(=O)Nc1ccc(F)cn1)c1ccc2c(c1)CCCN2C(=O)C1CC1 (stereo not drawn) [Example 155, 2-(1-(cyclopropanecarbonyl)-1,2,3,4-tetrahydroquinolin-6-yl)-N-(5-fluoropyridin-2-yl)-2-methoxyacetamide]",0.273
17,CCn1ccc(C(=O)NCc2ccc3c(c2)CCCN3C(=O)c2cccc(Cl)c2)n1 [Example 24],0.0998

row,SMILES,IC50 [µM]
1,"CC(C)CC(=O)NCc1ccc2c(c1)CCCN2C(=O)c1cccc(Cl)c1 [Example 17, N-{[1-(3-chlorobenzene-1-carbonyl)-1,2,3.4-tetrahydroquinolin-6-yl]methyl}-3-methylbutanamide]",0.702
2,"O=C(OC1CC1)N1CCCc2nc(C3(C(=O)Nc4ccc(Cl)cc4)COC3)ccc21 [compound 398, cyclopropyl 6-(3-((4-chlorophenyl)carbamoyl)oxetan-3-yl)-3,4-dihydro-1,5-naphthyridine-1(2H)-carboxylate]",0.00148
3,"CC(C(=O)Nc1ccc(F)cc1)c1ccc2c(c1)CCCN2C1COC1 (stereo not drawn) [Example 231, N-(4-fluorophenyl)-2-[1-(oxetan-3-yl)-1,2,3,4-tetrahydroquinolin-6-yl]propanamide]",0.0911
4,"COC(C(=O)Nc1ccc(F)cn1)c1ccc2c(c1)CCCN2C(=O)C1CC1 (single isomer, unassigned) [Example 157, 2-(1-(cyclopropanecarbonyl)-1,2,3,4-tetrahydroquinolin-6-yl)-N-(5-fluoropyridin-2-yl)-2-methoxyacetamide]",0.154
5,"C[C@@H](C(=O)Nc1ccc(F)cn1)c1ccc2c(c1)CCCN2C(=O)C1(F)CC1 (single isomer, unassigned) [Example 62]",0.524
6,"Cc1noc(C(=O)NCc2ccc3c(c2)CCCN3C(=O)c2cccc(Cl)c2)n1 [Example 21, N-{[1-(3-chlorobenzene-1-carbonyl)-1,2,3,4-tetrahydroquinolin-6-yl]methyl}-3-methyl-1,2,4-oxadiazole-5-carboxamide]",0.0405
7,"CC(C)[C@H](O)C(=O)N1CCCc2cc([C@H](C)C(=O)Nc3ccc(F)cc3)ccc21 (single isomer, unassigned) [Example 73]",0.381
8,"CC(NC(=O)c1ccc(F)cc1)c1ccc2c(n1)C(F)CCN2C(=O)C1CC1 (single isomer, unassigned) [Example 202, N-(1-(5-(cyclopropanecarbonyl)-8-fluoro-5,6,7,8-tetrahydro-1,5-naphthyridin-2-yl)ethyl)-4-fluorobenzamide]",0.396
9,"C[C@H](C(=O)Nc1ccc(F)cc1)c1ccc2c(c1)CCCN2C(=O)[C@@H]1CCCCO1 (single isomer, unassigned) [Example 88]",0.0031
10,"O=C(c1cc(C(F)(F)F)n[nH]1)N1CCCc2cc(C3(C(=O)Nc4ccc(F)cc4)CCC3)ccc21 [Example 116, N-(4-fluorophenyl)-1-{1-[3-(trifluoromethyl)-1H-pyrazole-5-carbonyl]-1,2,3,4-tetrahydroquinolin-6-yl}cyclobutane-1-carboxamide]",0.0514
11,"CC(C(=O)Nc1ccc(F)cc1)c1ccc2c(n1)CCCN2C(=O)[C@@H]1CCCO1 (single isomer, unassigned) [Example 163]",0.0218
12,"O=C(c1cnn(C2CC2)c1)N1CCCc2cc(C3(C(=O)Nc4ccc(F)cc4)CCC3)ccc21 [Example 113, 1-[1-(1-cyclopropyl-1H-pyrazole-4-carbonyl)-1,2,3,4-tetrahydroquinolin-6-yl]-N-(4-fluorophenyl)cyclobutane-1-carboxamide]",0.0658
13,"CC(C)CC(=O)N1c2ccc(CNC(=O)c3ccc(Cl)cc3)cc2CCC1(C)C [Example 13, 4-chloro-N-{[2,2-dimethyl-1-(3-methylbutanoyl)-1,2,3,4-tetrahydroquinolin-6-yl]methyl}benzamide]",0.0986
14,"CC(C(=O)Nc1ccc(F)cc1)c1ccc2c(n1)CCCN2C(=O)C1CCCCO1 (single isomer, unassigned) [Example 160, N-(4-fluorophenyl)-2-[5-(oxane-2-carbonyl)-5,6,7,8-tetrahydro-1,5-naphthyridin-2-yl]propanamide]",0.0082
15,"O=C(Nc1ccc(F)cc1)C(c1ccc2c(n1)CCCN2C(=O)C1CC1)C1CC1 (single isomer, unassigned) [Example 262, 2-(5-(cyclopropanecarbonyl)-5,6,7,8-tetrahydro-1,5-naphthyridin-2-yl)-2-cyclopropyl-N-(4-fluorophenyl)acetamide]",0.011
16,"CC(NC(=O)c1ccc(F)cc1)c1ccc2c(n1)CCCN2C(=O)OCCF (stereo not drawn) [Example 210, 2-fluoroethyl 6-{1-[(4-fluorobenzene-1-carbonyl)amino]ethyl}-3,4-dihydro-1,5-naphthyridine-1(2H)-carboxylate]",0.0055
17,"O=C(C1CC1)N1CCCc2nc(C3(C(=O)Nc4ccc(F)cn4)CCC3)ccc21 [Example 169, 1-[5-(cyclopropanecarbonyl)-5,6,7,8-tetrahydro-1,5-naphthyridin-2-yl]-N-(5-fluoropyridin-2-yl)cyclobutane-1-carboxamide]",0.0557

# Same assay, conditions: read-out: Hela IC50
row,SMILES,IC50 [µM]
1,"O=C(Nc1ccc(F)cc1)C1(c2ccc3c(n2)CCCN3c2ccnc(C(F)(F)F)n2)CC2(CC2)C1 [Example 416, N-(4-fluorophenyl)-5-(5-(2-(trifluoromethyl)pyrimidin-4-yl)-5,6,7,8-tetrahydro-1,5-naphthyridin-2-yl)spiro[2.3]hexane-5-carboxamide]",0.00079
2,"COc1cccc(N2CCCc3nc(C(C)NC(=O)c4ccc(Cl)cc4)ccc32)n1 (stereo not drawn) [Example 352, 4-chloro-N-(1-(5-(6-methoxypyridin-2-yl)-5,6,7,8-tetrahydro-1,5-naphthyridin-2-yl)ethyl)benzamide]",0.00401
3,"CC(C(=O)Nc1ccc(F)cc1)c1ccc2c(n1)CCCN2c1ccnc(C2CC2)n1 (stereo not drawn) [Example 367, 2-(5-(2-cyclopropylpyrimidin-4-yl)-5,6,7,8-tetrahydro-1,5-naphthyridin-2-yl)-N-(4-fluorophenyl)propanamide]",0.00181
4,"CCCOCCOC(=O)N1CCCc2nc(C(C)NC(=O)c3ccc(F)cc3)ccc21 (stereo not drawn) [Example 323, 2-propoxyethyl 6-(1-(4-fluorobenzamido)ethyl)-3,4-dihydro-1,5-naphthyridine-1(2H)-carboxylate]",0.0044
5,"C[C@H](NC(=O)c1ccc(F)cc1)c1ccc2c(n1)CCCN2c1cccc(F)n1 [Example 387, (S)-4-fluoro-N-(1-(5-(6-fluoropyridin-2-yl)-5,6,7,8-tetrahydro-1,5-naphthyridin-2-yl)ethyl)benzamide]",0.0257
